According to patent US20100081679A1, “DIAMINOPYRIMIDINES AS FUNGICIDES” (Bayer CropScience AG, priority 2007, published 2010):
Marks after values point to notes of the source that are not given here.

Experiment: logP determination via retention times, calibrated with unbranched alkan-2-ones
Format: physicochemical
Conditions: HPLC on reversed-phase C 18, EEC Directive 79/831 Annex V.A8; method **: 43° C., 0.1% aqueous phosphoric acid and acetonitrile, linear gradient 10% to 95% acetonitrile

logP | SMILES
2.96** | Fc1ccc(Nc2ncc(C(F)(F)F)c(NC3CC3)n2)cc1 [compound 498]

Same assay, conditions: HPLC on reversed-phase C 18, EEC Directive 79/831 Annex V.A8; method *: 40° C., 0.1% aqueous formic acid and acetonitrile, linear gradient 10% to 95% acetonitrile

logP | SMILES
1.56* | CN(C=O)c1ccc(Nc2ncc(Cl)c(NCC3CC3)n2)cc1 [compound 545]
1.68* | CC1COC(=O)N1c1cccc(Nc2ncc(Br)c(NC3CC3)n2)c1 (centres unmarked) [compound 533]
1.45* | Clc1cnc(Nc2cccc(N3CCCCC3)c2)nc1NC1CC1 [compound 535]
2.7* | N#Cc1ccc(Nc2ncc(Br)c(NCC3CC3)n2)cc1 [compound 475]
1.58* | CN(C)C(=O)c1cccc(Nc2ncc(Cl)c(NCC3CC3)n2)c1 [compound 519]
2.84* | Brc1ccc(Nc2ncc(Br)c(NCC3CC3)n2)cc1 [compound 472]
1.19* | O=C1CCc2cc(Nc3ncc(Cl)c(NCC4CC4)n3)ccc2N1 [compound 517]
1.66* | C=CC(=O)Nc1cccc(Nc2ncc(Br)c(NCC3CC3)n2)c1 [compound 482]
2.36* | Cc1cc(C)cc(Nc2ncc(Br)c(NCC3CC3)n2)c1 [compound 471]
1.81* | CC(C)(C)NC(=O)Cc1cccc(Nc2ncc(Cl)c(NC3CC3)n2)c1 [compound 562]
2.74* | O=C(N(c1ccc(Nc2ncc(Br)c(NCC3CC3)n2)cc1)C1CC1)C(F)(F)F [compound 465]

Same assay, conditions: HPLC on reversed-phase C 18, method **: 43° C.; 0.1% aqueous phosphoric acid and acetonitrile; linear gradient 10% to 95% acetonitrile

logP | SMILES
1.82** | CC(=O)Nc1cc(Nc2ncc(C(F)(F)F)c(NC3CC3)n2)ccc1C [compound 662]

Same assay, conditions: HPLC on reversed-phase C18, method **: 43° C.; mobile phase 0.1% aqueous phosphoric acid and acetonitrile; linear gradient 10% to 95% acetonitrile

logP | SMILES
0.87** | Cc1cc(Nc2ncc(Cl)c(NC3CC3)n2)c(C)cc1N [compound 313]
2.05** | CC(C)(C)NS(=O)(=O)Cc1cccc(Nc2ncc(Cl)c(NC3CC3)n2)c1 [compound 327]
2.12** | O=C1CCCN1c1ccc(Nc2ncc(C(F)(F)F)c(NC3CC3)n2)cc1 [compound 342]

Same assay, conditions: HPLC on reversed-phase C18, method *: 40° C., 0.1% aqueous formic acid and acetonitrile, linear gradient 10% to 95% acetonitrile

logP | SMILES
2.79* | CC(C)C1COC(=O)N1c1ccc(Nc2ncc(Cl)c(NC3CC3)n2)cc1 (centres unmarked) [compound 109]
1.75* | CC(=O)c1cc(Nc2ncc(Br)c(NC3CC3)n2)ccc1O [compound 763]
3.33* | FC(F)(F)c1ccc(Nc2ncc(Br)c(NC3CC3)n2)cc1 [compound 740]
3.68* | CCCCC(=O)Oc1ccc(Nc2ncc(Cl)c(NC3CC3)n2)cc1 [compound 106]
2.7* | Brc1ccc(Nc2ncc(Br)c(NC3CC3)n2)cc1 [compound 743]
1.97* | O=C(c1ccc(Nc2ncc(Cl)c(NC3CC3)n2)cc1)N1CCCCC1 [compound 723]
1.37* | OCc1cccc(Nc2ncc(Br)c(NC3CC3)n2)c1 [compound 766]
2.06* | CCC(=O)c1cc(Nc2ncc(Br)c(NC3CC3)n2)ccc1O [compound 760]
2.21* | FC(F)Oc1ccc(Nc2ncc(Br)c(NC3CC3)n2)cc1 [compound 748]
1.96* | CC(C)c1ccccc1Nc1ncc(Cl)c(NC2CC2)n1 [compound 872]
1.68* | Cc1cc(F)ccc1Nc1ncc(Cl)c(NC2CC2)n1 [compound 945]
1.68* | FC(F)c1cnc(Nc2ccccc2)nc1NCC1CC1 [compound 773]
1.44* | CN(C=O)c1ccc(Nc2ncc(Cl)c(NC3CC3)n2)cc1 [compound 978]
1.61* | Cc1ccccc1Nc1ncc(Cl)c(NC2CC2)n1 [compound 938]
1.83* | Cc1ccc(C)c(Nc2ncc(Cl)c(NC3CC3)n2)c1 [compound 935]
2.14* | CC(Nc1nc(Nc2ccccc2)ncc1Cl)C1CC1 (centres unmarked) [compound 166]
1.94* | CC(C)(C)NC(=O)Cc1cccc(Nc2ncc(Br)c(NC3CC3)n2)c1 [compound 698]
1.71*; | CC(=O)Nc1cc(Nc2ncc(C(F)(F)F)c(NC3CC3)n2)ccc1C [compound 662]
2.01* | CCCc1ccccc1Nc1ncc(Cl)c(NC2CC2)n1 [compound 912]

Same assay, conditions: HPLC on reversed-phase C18, method *: 40° C.; mobile phase 0.1% aqueous formic acid and acetonitrile; linear gradient 10% to 95% acetonitrile

logP | SMILES
2.55* | Clc1cnc(Nc2ccc(Br)cc2)nc1NC1CC1 [compound 281]
2.16* | O=S(=O)(c1cccc(Nc2ncc(Br)c(NC3CC3)n2)c1)N1CCCCC1 [compound 354]
2.41* | C#Cc1cccc(Nc2ncc(Br)c(NC3CC3)n2)c1 [compound 340]
1.97* | O=C(Nc1ccc(Nc2ncc(Br)c(NC3CC3)n2)cc1)C(F)(F)F [compound 350]
1.9* | Clc1cnc(Nc2ccc(-c3cscn3)cc2)nc1NC1CC1 [compound 286]
2.48* | Clc1cnc(Nc2ccc(OC3CCCC3)cc2)nc1NC1CC1 [compound 299]
2.55* | CO/N=C/c1ccc(Nc2ncc(Br)c(NC3CC3)n2)cc1 [compound 338]

Same assay, conditions: HPLC on reversed-phase C18 column (EEC Directive 79/831 Annex V.A8); method *: 40° C.; 0.1% aqueous formic acid and acetonitrile; linear gradient 10% to 95% acetonitrile

logP | SMILES
1.88* | COc1cc(Nc2ncc(Br)c(NCC3CC3)n2)cc(OC)c1OC [compound 190]
1.47* | CN1C(=O)COc2cc(Nc3ncc(Cl)c(NC4CC4)n3)ccc21 [compound 179]
2.32* | Clc1cnc(Nc2ccc(-c3nccs3)cc2)nc1NC1CC1 [compound 253]
2.43* | CC(=O)c1cc(Nc2ncc(Cl)c(NC3CC3)n2)ccc1Cl [compound 249]

Same assay, conditions: HPLC reversed-phase C 18, EEC Directive 79/831 Annex V.A8; method **: 43° C., 0.1% aqueous phosphoric acid and acetonitrile, linear gradient 10% to 95% acetonitrile

logP | SMILES
1.31** | Cc1nc(Nc2ccc(N3CCOC3=O)cc2)nc(NC2CC2)c1Cl [compound 840]

Same assay, conditions: HPLC reversed-phase C 18, EEC Directive 79/831 Annex V.A8; method *: 40° C., 0.1% aqueous formic acid and acetonitrile, linear gradient 10% to 95% acetonitrile

logP | SMILES
1.24* | O=C1COCCN1c1cccc(Nc2ncc(Br)c(NC3CC3)n2)c1 [compound 789]
1.51* | CC(=O)Cc1cccc(Nc2ncc(Cl)c(NC3CC3)n2)c1 [compound 780]
1.63* | O=C1OCCN1c1cccc(Nc2ncc(Cl)c(NCC3CC3)n2)c1 [compound 861]

Same assay, conditions: method **: HPLC reversed-phase C 18, 43° C., 0.1% aqueous phosphoric acid and acetonitrile, linear gradient 10% to 95% acetonitrile

logP | SMILES
2.26** | CN(C)S(=O)(=O)c1ccc(Nc2ncc(Cl)c(NC3CC3)n2)cc1 [Example 6]
2.09** | C=CCNS(=O)(=O)c1ccc(Nc2ncc(Cl)c(NC3CC3)n2)cc1 [compound 31]
1.52** | NS(=O)(=O)c1ccc(Nc2ncc(Cl)c(NCC3CC3)n2)cc1 [compound 8]
1.45** | O=C1CCCN1c1ccc(Nc2ncc(Cl)c(NC3CC3)n2)cc1 [Example 34]
1.85** | Clc1cnc(Nc2ccccc2)nc1NCC1CC1 [Example 10]
1.87** | CNS(=O)(=O)c1ccc(Nc2ncc(Cl)c(NCC3CC3)n2)cc1 [compound 20]

Same assay, conditions: method **: HPLC, reversed-phase C 18, 43° C., mobile phase 0.1% aqueous phosphoric acid and acetonitrile, linear gradient from 10% to 95% acetonitrile

logP | SMILES
4.15** | COc1ccc(CN(c2nc(Nc3ccccc3)ncc2Cl)C2CC2)cc1 [compound 1025]

Same assay, conditions: method *: HPLC reversed-phase C18, 40° C., 0.1% aqueous formic acid and acetonitrile, linear gradient 10% to 95% acetonitrile

logP | SMILES
1.73* | COC(=O)Nc1cccc(Nc2ncc(Br)c(NCC3CC3)n2)c1 [compound 458]
1.91* | COc1cc(Nc2ncc(Cl)c(NC3CC3)n2)cc(OC)c1 [Example 3]
2.77* | N#Cc1cnc(Nc2ccccc2)nc1NCC1CC1 [compound 87]
3.79* | CCCCSc1cccc(Nc2ncc(Cl)c(NC3CC3)n2)c1.Cc1ccc(S(=O)(=O)O)cc1 [compound 443]
2.44* | N#Cc1cnc(Nc2ccccc2)nc1NC1CC1 [compound 40]
2.06* | CC(C)(C)C(=O)Nc1cccc(Nc2ncc(Br)c(NCC3CC3)n2)c1 [compound 451]
1.38* | O=C1CCC(=O)N1c1cccc(Nc2ncc(Br)c(NC3CC3)n2)c1 [compound 447]
2.21* | CSc1cccc(Nc2ncc(Cl)c(NC3CC3)n2)c1 [Example 74]
2.13* | CC(C)(C)OC(=O)Nc1ccc(Nc2ncc(Br)c(NC3CC3)n2)cc1 [compound 391]
2.26* | CN(C)S(=O)(=O)c1ccc(Nc2ncc(Cl)c(NC3CC3)n2)cc1.Cl [Example 78]
1.62* | CN(C)S(=O)(=O)Cc1cccc(Nc2ncc(Cl)c(NC3CC3)n2)c1 [compound 431]
1.58* | CNC(=O)c1ccc(Nc2ncc(Br)c(NCC3CC3)n2)cc1 [compound 424]
2.2* | COC(=O)Nc1ccc(Nc2ncc(Br)c(NC3CC3)n2)cc1Cl [compound 430]

Same assay, conditions: method *: HPLC reversed-phase C 18, temperature 40° C.; mobile phase 0.1% aqueous formic acid and acetonitrile; linear gradient 10% to 95% acetonitrile

logP | SMILES
3.35* | Fc1cc(F)cc(Nc2ncc(Br)c(NC3CC3)n2)c1 [compound 602]
2.48* | COc1cccc(Nc2ncc(C#N)c(NC3CC3)n2)c1 [compound 604]
1.23* | O=C1OCCN1c1ccc(Nc2ncc(F)c(NC3CC3)n2)cc1 [compound 592]
1.55* | CC(C)(CF)C(=O)Nc1cccc(Nc2ncc(F)c(NC3CC3)n2)c1 [compound 600]
1.68* | CSc1ccc(Nc2ncc(F)c(NC3CC3)n2)cc1 [compound 587]
2.6* | CC(C)(C)C(=O)Nc1cccc(Nc2ncc(C(F)(F)F)c(NC3CC3)n2)c1 [compound 650]
1.35* | CCNC(=O)c1cccc(Nc2ncc(Cl)c(NC3CC3)n2)c1 [compound 631]

SMILES | logP
CNC(=O)Oc1cccc(Nc2ncc(C#N)c(NC3CC3)n2)c1 [compound 611] | 1.92*

Same assay, conditions: method *: HPLC, reversed-phase C 18, 40° C., mobile phase 0.1% aqueous formic acid and acetonitrile, linear gradient from 10% to 95% acetonitrile

logP | SMILES
4.6* | FC(F)(F)c1cc(Br)cc(Nc2ncc(Cl)c(NC3CC3)n2)c1 [compound 998]
2.65* | Brc1cnc(Nc2ccccc2)nc1NC1CC1 [compound 1069]
